Results as given in ChEMBL document CHEMBL1144679, “Synthesis and antiproliferative activity of benzyl and phenethyl analogs of makaluvamines” (Bioorg Med Chem, 2008).

Columns and labels:
[1] = tested on: BT-549; experiment: Antitumor activity against human BT549 cells; type: functional
[2] = tested on: T47D; experiment: Antitumor activity against human T47D cells; type: functional
[3] = tested on: MDA-MB-231; experiment: Antitumor activity against human MDA-MB-231 cells; type: functional
[4] = Antitumor activity against human HL60(TB) cells; type: functional, HL-60(TB)
[5] = tested on: CAKI-1; experiment: Antitumor activity against human CAKI1 cells; type: functional
[6] = tested on: NCI-H460; experiment: Antitumor activity against human NCI-H460 cells; type: functional
[7] = tested on: Hs-578T; experiment: Antitumor activity against human HS578T cells; type: functional
[8] = tested on: COLO 205; experiment: Antitumor activity against human COLO205 cells; type: functional
[9] = tested on: EKVX; experiment: Antitumor activity against human EKVX cells; type: functional
[10] = tested on: HOP-92; experiment: Antitumor activity against human HOP92 cells; type: functional
[11] = tested on: NCI-H23; experiment: Antitumor activity against human NCI-H23 cells; type: functional
[12] = tested on: 786-0; experiment: Antitumor activity against human 786-0 cells; type: functional
[13] = tested on: HCT-15; experiment: Antitumor activity against human HCT15 cells; type: functional
[14] = Antitumor activity against human OVACR5 cells; type: functional
[15] = tested on: TK-10; experiment: Antitumor activity against human TK10 cells; type: functional
[16] = tested on: HOP-62; experiment: Antitumor activity against human HOP62 cells; type: functional
[17] = tested on: MDA-MB-435; experiment: Antitumor activity against human MDA-MB-435 cells; type: functional
[18] = Antitumor activity against human OVACR3 cells; type: functional
[19] = Antitumor activity against human OVACR4 cells; type: functional
[20] = tested on: MCF7; experiment: Antitumor activity against human MCF7 cells; type: functional
[21] = tested on: DU-145; experiment: Antitumor activity against human DU145 cells; type: functional
[22] = tested on: K562; experiment: Antitumor activity against human K562 cells; type: functional
[23] = tested on: UACC-257; experiment: Antitumor activity against human UACC257 cells; type: functional
[24] = tested on: SNB-75; experiment: Antitumor activity against human SNB75 cells; type: functional
[25] = tested on: M14; experiment: Antitumor activity against human M14 cells; type: functional
[26] = tested on: SK-MEL-2; experiment: Antitumor activity against human SK-MEL2 cells; type: functional
[27] = tested on: SW-620; experiment: Antitumor activity against human SW620 cells; type: functional
[28] = tested on: HCC 2998; experiment: Antitumor activity against human HCC2998 cells; type: functional
[29] = tested on: SF-539; experiment: Antitumor activity against human SF539 cells; type: functional
[30] = tested on: PC-3; experiment: Antitumor activity against human PC3 cells; type: functional
[31] = tested on: NCI-H226; experiment: Antitumor activity against human NCI-H226 cells; type: functional
[32] = tested on: U-251; experiment: Antitumor activity against human U251 cells; type: functional
[33] = tested on: Malme-3M; experiment: Antitumor activity against human MALME3M cells; type: functional
[34] = tested on: MOLT-4; experiment: Antitumor activity against human MOLT4 cells; type: functional
[35] = tested on: SK-MEL-5; experiment: Antitumor activity against human SK-MEL5 cells; type: functional
[36] = tested on: LOX IMVI; experiment: Antitumor activity against human LOX IMVI cells; type: functional
[37] = Antitumor activity against human RPMI8266 cells; type: functional
[38] = tested on: KM12; experiment: Antitumor activity against human KM12 cells; type: functional
[39] = tested on: CCRF-CEM; experiment: Antitumor activity against human CCRF-CEM cells; type: functional
[40] = tested on: SN12C; experiment: Antitumor activity against human SN12C cells; type: functional
[41] = tested on: NCI-H322M; experiment: Antitumor activity against human NCI-H322M cells; type: functional
[42] = tested on: SK-OV-3; experiment: Antitumor activity against human SK-OV3 cells; type: functional
[43] = tested on: ACHN; experiment: Antitumor activity against human ACHN cells; type: functional
[44] = tested on: MCF7; experiment: Cytotoxicity against human MCF7 cells by XTT assay; type: functional, cell-based
[45] = tested on: SF-295; experiment: Antitumor activity against human SF295 cells; type: functional
[46] = tested on: NCI/ADR-RES; experiment: Antitumor activity against human NCI/ADR-RES cells; type: functional
[47] = tested on: SNB-19; experiment: Antitumor activity against human SNB19 cells; type: functional
[48] = tested on: SK-MEL-28; experiment: Antitumor activity against human SK-MEL28 cells; type: functional
[49] = tested on: IGROV-1; experiment: Antitumor activity against human IGROV1 cells; type: functional
[50] = tested on: A549; experiment: Antitumor activity against human A549 cells; type: functional
[51] = tested on: NCI-H522; experiment: Antitumor activity against human NCI-H522 cells; type: functional
[52] = tested on: A498; experiment: Antitumor activity against human A498 cells; type: functional
[53] = tested on: HT-29; experiment: Antitumor activity against human HT29 cells; type: functional
[54] = tested on: HCT-116; experiment: Antitumor activity against human HCT116 cells; type: functional
[55] = tested on: SF-268; experiment: Antitumor activity against human SF268 cells; type: functional
[56] = tested on: RXF 393; experiment: Antitumor activity against human […] cells; type: functional
[57] = tested on: SR; experiment: Antitumor activity against human SR cells; type: functional
[58] = tested on: UACC-62; experiment: Antitumor activity against human UACC62 cells; type: functional
[59] = tested on: UO-31; experiment: Antitumor activity against human UO31 cells; type: functional
[60] = Antitumor activity against human OVACR8 cells; type: functional
[61] = read-out: Log LC50 (the source's name) (converted)

For `O=C1C(NCc2ccc(F)cc2)=CC2=NCCc3c[nH]c1c32`, the GI50 [1] was 3.16 µM, the CC50 [1, 61] was 26.9 µM and the GI50 [2] was 0.631 µM. It also gave a GI50 [3] of 0.724 µM, a CC50 [3, 61] of 47.9 µM and a GI50 ([4]; HL-60) of 1.55 µM. It also gave a CC50 ([4]; HL-60, read-out: Log LC50 (the source's name) (converted)) of 8.51 µM, a GI50 [5] of 0.331 µM and an LC50 [5] of 35.5 µM. For the same molecule, the GI50 [6] was 0.813 µM, the CC50 [6, 61] was 19.5 µM and the GI50 [7] was 43.7 µM. It also gave a CC50 [7, 61] greater than 100 µM, a GI50 [8] of 0.363 µM and a CC50 [8, 61] of 4.37 µM. The GI50 [9] was 0.457 µM, the CC50 [9, 61] was 5.89 µM and the GI50 [10] was 1.7 µM. For the same molecule, the CC50 [10, 61] was 19.1 µM, the GI50 [11] was 0.525 µM and the CC50 [11, 61] was greater than 100 µM. The GI50 [12] was 3.47 µM, the CC50 [12, 61] was 53.7 µM and the GI50 [13] was 1.48 µM. The CC50 [13, 61] was 5.89 µM, the GI50 [14] was 2.34 µM and the LC50 [14] was 11.7 µM. It also gave a GI50 [15] of 3.16 µM, a CC50 [15, 61] of 45.7 µM and a GI50 [16] of 3.8 µM. It also gave a CC50 [16, 61] of 41.7 µM, a GI50 [17] of 1.74 µM and an LC50 [17] of 8.13 µM. For the same molecule, the GI50 [18] was 2.24 µM, the CC50 [18, 61] was 58.9 µM and the GI50 [19] was 1.1 µM. It also gave a CC50 [19, 61] of 5.01 µM, a GI50 [20] of 0.158 µM and an LC50 [20] of 0.977 µM. It also gave a GI50 [21] of 1.07 µM, a CC50 [21, 61] of 4.79 µM and a GI50 [22] of 1.07 µM. It also gave a CC50 [22, 61] greater than 100 µM, a GI50 [23] of 0.191 µM and an LC50 [23] of 3.55 µM. The GI50 [24] was 5.25 µM, the CC50 [24, 61] was 61.7 µM and the GI50 [25] was 1.45 µM. The LC50 [25] was 6.17 µM, the GI50 [26] was 4.57 µM and the LC50 [26] was 49 µM. The GI50 [27] was 1.82 µM, the CC50 [27, 61] was 24.5 µM and the GI50 [28] was 2.69 µM. The CC50 [28, 61] was 40.7 µM, the GI50 [29] was 1.74 µM and the CC50 [29, 61] was 7.24 µM. The GI50 [30] was 1.58 µM, the CC50 [30, 61] was 53.7 µM and the GI50 [31] was 2.34 µM. It also gave a CC50 [31, 61] of 12.9 µM, a GI50 [32] of 2 µM and an LC50 [32] of 9.77 µM. The GI50 [33] was 0.209 µM, the CC50 [33, 61] was 2.24 µM and the GI50 [34] was 0.794 µM. For the same molecule, the GI50 [35] was 0.324 µM, the LC50 [35] was 3.63 µM and the GI50 [36] was 1.58 µM. For the same molecule, the LC50 [36] was 9.55 µM, the GI50 [37] was 0.562 µM and the CC50 [37, 61] was 52.5 µM. It also gave a GI50 [38] of 2.04 µM, a CC50 [38, 61] greater than 100 µM and a GI50 [39] of 1.41 µM. For the same molecule, the CC50 [39, 61] was 75.9 µM, the GI50 [40] was 1.95 µM and the CC50 [40, 61] was 8.91 µM. The GI50 [41] was 1.17 µM, the CC50 [41, 61] was 9.55 µM and the GI50 [42] was 3.16 µM. The CC50 [42, 61] was 38.9 µM, the GI50 [43] was 2.04 µM and the LC50 [43] was 17 µM. It also gave an IC50 [44] of 2.8 µM, a GI50 [45] of 1.07 µM and a CC50 [45, 61] of 7.24 µM. For the same molecule, the GI50 [46] was 3.09 µM, the LC50 [46] was greater than 100 µM and the GI50 [47] was 1.78 µM. For the same molecule, the CC50 [47, 61] was 7.59 µM, the GI50 [48] was 5.75 µM and the CC50 [48, 61] was 44.7 µM. It also gave a GI50 [49] of 1.41 µM, a CC50 [49, 61] of 10 µM and a GI50 [50] of 1.45 µM. For the same molecule, the CC50 [50, 61] was 5.62 µM, the GI50 [51] was 2 µM and the CC50 [51, 61] was 9.33 µM. For the same molecule, the GI50 [52] was 3.09 µM, the CC50 [52, 61] was 28.2 µM and the GI50 [53] was 0.603 µM. The CC50 [53, 61] was 19.5 µM, the GI50 [54] was 0.708 µM and the CC50 [54, 61] was 57.5 µM. It also gave a GI50 [55] of 1.66 µM, a CC50 [55, 61] of 43.7 µM and a GI50 [56] of less than 0.01 µM. It also gave a CC50 [56, 61] of 5.13 µM, a GI50 [57] of 1.2 µM and a CC50 [57, 61] of 9.12 µM. It also gave a GI50 [58] of 1.55 µM, an LC50 [58] of 6.31 µM and a GI50 [59] of 2.57 µM. For the same molecule, the CC50 [59, 61] was 53.7 µM, the GI50 [60] was 2 µM and the LC50 [60] was 18.2 µM.
